Assay results published in patent publication US20240216250A1, “COSMETIC PEPTIDES FOR IMPROVING SKIN REJUVENATION” (Lean Life Sciences, Inc., priority 2021, published 2024).
“Also recorded” adds a separate entry of the source.

Experiments:
[1] = tested on: 3T3-L1 cells; assay: Fructose, glucose and sucrose concentration in adipocytes (3T3-L1 cell lysates, Fructose Assay Kit); assay type: cell-based, mouse
Description: (§1) Fructose concentration in 3T3-L1 cell lysates was measured using the Fructose Assay Kit (Abcam, Cambridge, UK). Six-well plates were seeded with 5×10^5 3T3-L1 cells/well one day before treating with 150 μM peptide. After 48 hours of treatment, the cells were harvested and fructose concentrations were assayed according to the manufacturer's instruction.
In order to confirm the effect of peptides on reducing the fructose level in adipocytes, three groups of adipocytes were prepared. Among the three groups, one group was treated with GGR, and another group was treated with RAK. The remaining group was not treated with any peptides and used as a control group. […] Fructose—an intermediate metabolite of glucose—was measured to further probe glucose metabolism. 3T3-L1 cells treated with either peptide had lower fructose concentrations than untreated cells (FIG. 1).
An additional group of adipocytes are treated with one of KGGRAKD, KGG, GGR, GRA, RAK, AKD, DKA, KAR, ARG, RGG, GGK, and DKARGGK in the same manner as Example 1-1.

[2] = tested on: 3T3-L1 mature adipocytes; assay: Lipid accumulation in 3T3-L1 adipocytes by Oil Red O staining, with cell count; assay type: cell-based, mouse; details: for Number and size of lipid droplets in adipocytes: Oil Red O, microscopy, peptides at 100 μM, three times per week for three weeks (Day 21), vs non-treated control; for Decrease in degree of lipid accumulation: 3T3-L1 mature adipocytes, quantitative Oil Red O analysis, Day 21 (H of FIG. 3); for Reduction of lipid accumulation: murine-based in vitro systems
Description: FIG. 3: Representative photomicrographs showing Oil Red O-stained mature adipocytes treated with peptides at 100 μM (Day 21). H: Quantitative analysis of the lipids accumulated in the adipocytes (Day 21). Control absorbance: 0.526 (Red line). I: Relative cell counts on day 21.
The effects of the minimal short peptides in blocking lipid accumulation in adipocytes were compared with their parent full-length peptide. After generating five different 3 amino acid fragments (KGG, GGR, GRA, RAK, and AKD) from the original ATS peptide (KGGRAKD (SEQ ID NO:1)), each peptide was administered to 3T3-L1 pre-adipocytes in five varying concentrations. Peptides were treated to the adipocytes three times per week for three weeks. Oil Red O staining was utilized to assess the lipid contents in mature adipocytes in culture. The morphological characteristics of 3T3-L1 mature adipocytes were observed by microscopy. […] Furthermore, the lipids were quantitatively analyzed.
The number of viable cells is counted prior to Oil Red O staining using Cell Counting Kit 8 (Dojindo). This cell viability study allows one to determine potential toxicities of the peptides and compensate for cell number variation-causing artifacts. Oil Red O is dissolved in isopropanol at […] to create a working solution. 12 ml of Oil Red O working solution is mixed with 8 ml dH2O and incubated for 10 minutes. This solution is then filtered using a 0.2 μm syringe filter. Adipocytes seeded on 96-well plates are washed with PBS twice. 10% formaldehyde is added for initial fixation and the plates are incubated for at least 30 minutes. The formaldehyde is removed and the cells are once again washed twice, this time with dH2O. 60% isopropanol is added to each well. The plates are incubated for 5 minutes. The isopropanol is removed from the wells and replaced with Oil Red O working solution. The plates are incubated for an additional 10 minutes. The Oil Red O solution is removed and washed four times with dH2O. Lastly, digital micrographs of the lipid droplets in adipocytes are taken using a light microscope. After the staining protocol, all plates are washed three times with 60% isopropanol. Each time, 5 minutes of gentle rocking was used. The Oil Red O is extracted with 100% isopropanol with gentle rocking for 5 minutes. 200 μl isopropanol per well is used as a background to measure absorbance at 492 nm using a BioTek microplate reader.

[3] = tested on: skin cells; assay: Fructose, glucose and sucrose concentration in skin cells, same manner as Example 1-1; assay type: cell-based; details: Example 1-18, present tense
Description: as §1
An additional group of skin cells are treated with one of KGGRAKD, KGG, GGR, GRA, RAK, AKD, DKA, KAR, ARG, RGG, GGK, and DKARGGK in the same manner as Example 1-1.
An additional group of skin cells were treated with […] (SEQ ID NO: 5) in the same manner as Example 1-1.
(§2) An additional group of skin cells are treated with one of […] (SEQ ID NO: 3) and […] (SEQ ID NO: 4) in the same manner as Example 1-1.

[4] = tested on: skin cells; assay: Collagen and fibronectin levels in skin cells upon peptide treatment; assay type: cell-based; details: Example 1-18, at a particular concentration, present tense
Description: as §2
The fructose, glucose, and sucrose concentrations in the groups where the above peptides are treated are not affected (data not shown), while the extra cellular matrix molecules, collagen and fibronectin, are determined.

[5] = tested on: DIO mice; assay: Body weight gain in DIO mice: obesity progression model (OPM) and obesity model (OM); assay type: in vivo; details: for Prevention of body weight gain: pre-obese OPM mice on HFD; for Anti-obesity efficacy (body weight): oral administration
Description: Prior to oral administration, peptides were administered to DIO mice via intraperitoneal (IP) and subcutaneous (SC) injections.
In the first phase, peptides were tested on pre-obese mice that were being fed high fat diet (HFD) to induce obesity (obesity progression model, OPM). In the second phase, these peptides were given to mice that had already developed obesity (obesity model, OM). […] As the activity of these three peptides varies depending on the injection route and the disease status, all three peptides, GGR, RAK, and AKD, were tested by oral administration.
Prior to oral administration, GGR, RAK, AKD, full-length ATS, and scrambled RKG peptides were administered to OPM mice via IP and SC injections to further screen an ideal peptide composition. PBS was included as a vehicle group. GGR, RAK, and AKD peptides were discovered to impede body weight gain in OPM mice. GGR and RAK were effective when given IP injections and AKD was effective by SC injections (FIGS. 4 and 5).
The second phase signified the post-obesity stage, where the same methods from phase 1 were used on OM mice.
(§3) GGR, RAK, and AKD peptides were tested in OPM and OM mice by oral administration. […] In obesity progression, adipocytes increase in both number and size due to escalating lipid accumulation (Parlee, S. D., et al., Methods Enzymol 537, 93-122, (2014)). Using the methods described above, abdominal fat pads of GGR, RAK, AKD, or PBS-treated DIO mice were histologically analyzed. Epididymal fat tissues were harvested from two mice per experimental group. All samples were fixed in 4% paraformaldehyde, H&E-stained, and imaged. At a 10× magnification, adipocyte cell counting was performed on the digital slide images using an automated adipocyte counting macro with the ImageJ software. A default thresholding method was used and [cell] sizing boundaries of 40-40,000 were set. Limitations of the segmentation tool led to some erroneous selections or regions of interest (ROI), which were manually corrected by adding or erasing lines. The number of cells per representative field were then determined using the ROI manager in ImageJ. Two or three high power fields (hpf) per tissue and two tissue samples per group were analyzed to reduce variability. Average cell count for each group was calculated accordingly. Areas of all adipocytes of interest were measured using the ROI measurement tool (ImageJ) and average area per cell was calculated accordingly.

[6] = tested on: abdominal fat pads of DIO mice; assay: Histological analysis of fat pads of DIO mice (adipocyte number and size); assay type: in vivo; details: epididymal fat
Description: FIG. 10. Histological analysis fat pads. An automated system detected and counted adipocytes (yellow line). Adipocyte number and size: average of 3 hpf images from 2 mice (total 6 images/group).
as §3
The primary function of adipocytes is to store energy in the form of lipids. The volume of lipid stored in an adipocyte cell increases as the third power of the diameter. Because mature adipocytes are composed of large lipid droplets that are surrounded by very thin cytoplasmic layers, the increase in volume of an adipocyte cell likely indicates increased lipid storage. Thus, smaller adipocyte size/area translates to reduced lipid accumulation.

[7] = Examples 1-2 to 1-11, same manner as Example 1-1
[8] = post-obese OM mice, IP injection
[9] = 3T3-L1 cells, 150 μM peptide, 48 hours, vs untreated control (FIG. 1)
[10] = post-obese OM mice, SC injection

Question: Which “Fructose concentration in adipocytes vs control group” value [1, 7] does the source give for GGK here?
Answer: significantly lower than the control group

Question: With DKA as the substance, how does the “Fructose concentration in adipocytes vs control group” value [1, 7] read?
Answer: significantly lower than the control group

Question: KGG was tested. Which “Fructose concentration in adipocytes vs control group” value [1, 7] did it give?
Answer: significantly lower than the control group

Question: What about the “Number and size of lipid droplets in adipocytes” value (“Number and size” for short) [2] of the same substance?
Answer: moderate differences in the morphology of lipid droplets

Question: How did the “Fructose concentration in adipocytes vs control group” value [1, 7] turn out when RGG was run?
Answer: significantly lower than the control group

Question: With ACTGSTQHQGGGSEHGAMEI as the substance, how does the “Fructose concentration in skin cells” value [3] read?
Answer: not affected

Question: And the “Glucose concentration in skin cells” value [3]?
Answer: not affected

Question: And the “Sucrose concentration in skin cells” value [3]?
Answer: not affected

Question: What about the “Collagen in skin cells vs control group” value [4] of the same substance?
Answer: significantly higher than the control group

Question: And the “Fibronectin in skin cells vs control group” value [4]?
Answer: significantly higher than the control group

Question: For KAR, which “Fructose concentration in adipocytes vs control group” value [1, 7] is on record?
Answer: significantly lower than the control group

Question: With ARG as the substance, how does the “Fructose concentration in adipocytes vs control group” value [1, 7] read?
Answer: significantly lower than the control group

Question: Which results are given for RKG [reference compound]?
Answer: Anti-obesity effects ([5]; IP and SC studies, regardless of injection route or schedule): no anti-obesity effects; Prevention of body weight gain / body weight change [5, 8]: did not show meaningful efficacy over the vehicle group; Prevention of body weight gain ([5]; IP injection): did not show meaningful efficacy over the vehicle group; also recorded: no anti-obese effects; Prevention of body weight gain ([5]; SC injection): no anti-obese effects

Question: For GRA, which “Fructose concentration in adipocytes vs control group” value [1, 7] is on record?
Answer: significantly lower than the control group

Question: And the “Number and size” value [2]?
Answer: moderate differences in the morphology of lipid droplets

Question: What does the source list for RAK?
Answer: Fructose concentration in adipocytes vs control group [1, 9]: significantly lower than the control group; Average cell count per field ([6]; adipocytes, 10× magnification, ImageJ, rank among all experimental groups (FIG. 10)): highest; Activity by histological analysis of the fat pads ([6]; H&E, DIO mice): more active than GGR; also recorded: highest efficacy; Average adipocyte area per cell ([6]; ImageJ ROI, rank among all experimental groups (FIG. 10)): lowest; Prevention of body weight gain / body weight change [5, 8]: positive effects on prevention of body weight gain; Prevention of body weight gain / body weight change [5, 10]: effective; Anti-obesity efficacy (body weight) ([5]; post-obese OM mice): has anti-obesity efficacy; Prevention of body weight gain ([5]; IP injection): positive effects on prevention of body weight gain; also recorded: effective; Anti-obesity efficacy (body weight) ([5]; pre-obese OPM mice): efficacious over GGR; also recorded: has anti-obesity efficacy; Decrease in degree of lipid accumulation [2]: approximately 20%; Number and size of lipid droplets in adipocytes [2]: smaller than those in the non-treated control; Reduction of lipid accumulation [2]: effective in reducing lipid accumulation

Question: How did the “Fructose concentration in skin cells” value [3] turn out when ACSSSPSKHCGGGSESPLKRQG was run?
Answer: not affected

Question: What about the “Glucose concentration in skin cells” value [3] of the same substance?
Answer: not affected

Question: What about the “Sucrose concentration in skin cells” value [3] of the same substance?
Answer: not affected

Question: And the “Collagen in skin cells vs control group” value [4]?
Answer: significantly higher than the control group

Question: And the “Fibronectin in skin cells vs control group” value [4]?
Answer: significantly higher than the control group

Question: For AKD, which “Fructose concentration in adipocytes vs control group” value [1, 7] is on record?
Answer: significantly lower than the control group

Question: What about the “Prevention of body weight gain” value ([5]; SC injection) of the same substance?
Answer: best working peptide; also recorded: effective

Question: And the “Anti-obesity efficacy (body weight)” value ([5]; pre-obese OPM mice)?
Answer: efficacious over GGR

Question: And the “Decrease in degree of lipid accumulation” value [2]?
Answer: approximately 20%

Question: And the “Number and size” value [2]?
Answer: smaller than those in the non-treated control

Question: What about the “Reduction of lipid accumulation” value [2] of the same substance?
Answer: effective in reducing lipid accumulation

Question: For GGR, which “Fructose concentration in adipocytes vs control group” value [1, 9] is on record?
Answer: significantly lower than the control group

Question: What about the “Prevention of body weight gain / body weight change” value [5, 8] of the same substance?
Answer: positive effects on prevention of body weight gain

Question: What about the “Prevention of body weight gain / body weight change” value [5, 10] of the same substance?
Answer: effective

Question: What about the “Prevention of body weight gain” value ([5]; IP injection) of the same substance?
Answer: positive effects on prevention of body weight gain; also recorded: effective

Question: What about the “Decrease in degree of lipid accumulation” value [2] of the same substance?
Answer: approximately 20%

Question: What about the “Number and size” value [2] of the same substance?
Answer: smaller than those in the non-treated control

Question: What about the “Reduction of lipid accumulation” value [2] of the same substance?
Answer: effective in reducing lipid accumulation

Question: With DKARGGK as the substance, how does the “Fructose concentration in adipocytes vs control group” value [1, 7] read?
Answer: significantly lower than the control group
